Literature values in patent US20080081052A1, “Topical compositions containing solubilized allantoin and related methods” (priority 2006, published 2008).

Conditions: expressed in g/100 g water @ 25 degree C; no solubilization enhancer

solubility of allantoin in water: 0.45%
SMILES: NC(=O)NC1NC(=O)NC1=O (stereo not shown) [allantoin, (2,5-dioxo-4-imidazolidinyl) urea]
